Source: PubChem BioAssay AID252 (DTP/NCI, 2004)
Several values for one entry are separate records, joined by “and”; a condition that tells them apart may be missing. Equal values may be shown once. Toxic doses and inconclusive results are not listed. Rule for the calls: active = survival T/C of 150% or more; inactive = T/C below 125% in these data.

Tested on: BDF1 mice, intracerebral L1210 leukemia, survival T/C
Test: NCI In Vivo Anticancer Drug Screen. Data for tumor model L1210 Leukemia (intracerebral) in B6D2F1 (BDF1) mice
Conditions: endpoint: mean survival time, higher = longer survival
Outline: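 Survival measured in treated and vehicle-control tumour-bearing mice; value = T/C.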

[1] = dose: 18.0 mg/kg/injection, schedule: Q01DX001 (ip), vehicle: carboxymethylcellulose (CMC)
[2] = dose: 40.0 mg/kg/injection, schedule: Q01DX001 (ip), vehicle: carboxymethylcellulose (CMC)
[3] = dose: 60.0 mg/kg/injection, schedule: Q01DX001 (ip), vehicle: carboxymethylcellulose (CMC)
[4] = dose: 3.0 mg/kg/injection, schedule: Q01DX001 (ip), vehicle: carboxymethylcellulose (CMC)

Measured: T/C

COc1cccc(NC(=O)N(CCCl)N=O)c1
inactive: [1] 115 % of control | dose: 27.0 mg/kg/injection, schedule: Q01DX001 (ip), vehicle: carboxymethylcellulose (CMC) 115 % of control | [2] 121 % of control | [3] 97 % of control

O=NN(CCCl)C(=O)Nc1cc(NC(=O)N(CCCl)N=O)cc(C(=O)O)c1
inactive: dose: 1.5 mg/kg/injection, schedule: Q01DX001 (ip), vehicle: carboxymethylcellulose (CMC) 108 % of control | [4] 106 % of control | dose: 5.0 mg/kg/injection, schedule: Q01DX001 (ip), vehicle: carboxymethylcellulose (CMC) 104 % of control | dose: 8.0 mg/kg/injection, schedule: Q01DX001 (ip), vehicle: carboxymethylcellulose (CMC) 104 % of control | dose: 12.0 mg/kg/injection, schedule: Q01DX001 (ip), vehicle: carboxymethylcellulose (CMC) 102 % of control | [1] 110 % of control | dose: 26.0 mg/kg/injection, schedule: Q01DX001 (ip), vehicle: carboxymethylcellulose (CMC) 106 % of control | [2] 93 % of control | [3] 87 % of control

N[C@@H](Cc1ccc(N(CCCl)CCCl)cc1)C(=O)O
inactive: dose: 1.0 mg/kg/injection, schedule: Q01DX009 (ip), vehicle: saline 111 % of control | dose: 1.0 mg/kg/injection, schedule: Q01DX Z (ip), vehicle: carboxymethylcellulose (CMC) 98 % of control | dose: 1.13 mg/kg/injection, schedule: Q01DX001 (ip), vehicle: carboxymethylcellulose (CMC) 104 % of control and 97 % of control | dose: 2.0 mg/kg/injection, schedule: Q01DX009 (ip), vehicle: saline 114 % of control | dose: 2.0 mg/kg/injection, schedule: Q01DX Z (ip), vehicle: carboxymethylcellulose (CMC) 111 % of control | dose: 2.25 mg/kg/injection, schedule: Q01DX001 (ip), vehicle: carboxymethylcellulose (CMC) 103 % of control and 104 % of control | [4] 103 % of control and 108 % of control | dose: 4.5 mg/kg/injection, schedule: Q01DX001 (ip), vehicle: carboxymethylcellulose (CMC) 104 % of control and 110 % of control | dose: 8.0 mg/kg/injection, schedule: Q01DX Z (ip), vehicle: carboxymethylcellulose (CMC) 102 % of control | dose: 9.0 mg/kg/injection, schedule: Q01DX001 (ip), vehicle: carboxymethylcellulose (CMC) 119 % of control and 120 % of control | dose: 12.5 mg/kg/injection, schedule: Q01DX Z (ip), vehicle: carboxymethylcellulose (CMC) 111 % of control and 88 % of control | [1] 122 % of control | dose: 25.0 mg/kg/injection, schedule: Q01DX Z (ip), vehicle: carboxymethylcellulose (CMC) 88 % of control | dose: 29.0 mg/kg/injection, schedule: Q01DX001 (ip), vehicle: carboxymethylcellulose (CMC) 115 % of control
active: dose: 14.0 mg/kg/injection, schedule: Q01DX001 (ip), vehicle: carboxymethylcellulose (CMC) 155 % of control

CN(N=O)C(=O)NCCCCNC(=O)N(C)N=O
inactive: dose: 250.0 mg/kg/injection, schedule: Q01DX001 (ip), vehicle: carboxymethylcellulose (CMC) 103 % of control | dose: 300.0 mg/kg/injection, schedule: Q01DX001 (ip), vehicle: carboxymethylcellulose (CMC) 110 % of control | dose: 500.0 mg/kg/injection, schedule: Q01DX001 (ip), vehicle: carboxymethylcellulose (CMC) 102 % of control | dose: 750.0 mg/kg/injection, schedule: Q01DX001 (ip), vehicle: carboxymethylcellulose (CMC) 110 % of control

Cc1cccc2c(Nc3ccc(NS(C)(=O)=O)cc3)c3ccccc3nc12
inactive: dose: 10.0 mg/kg/injection, schedule: Q01DX009 (ip), vehicle: saline 100 % of control | dose: 10.0 mg/kg/injection, schedule: Q01DX009 (sc), vehicle: saline 96 % of control | dose: 20.0 mg/kg/injection, schedule: Q01DX009 (ip), vehicle: saline 110 % of control | dose: 20.0 mg/kg/injection, schedule: Q01DX009 (sc), vehicle: saline 101 % of control | dose: 40.0 mg/kg/injection, schedule: Q01DX009 (ip), vehicle: saline 112 % of control | dose: 40.0 mg/kg/injection, schedule: Q01DX009 (sc), vehicle: saline 97 % of control | dose: 80.0 mg/kg/injection, schedule: Q01DX009 (ip), vehicle: saline 87 % of control | dose: 80.0 mg/kg/injection, schedule: Q01DX009 (sc), vehicle: saline 104 % of control

CC[n+]1ccc(Nc2ccc(NC(=O)c3ccc(Nc4cc[n+](CC)c5ccc(N)cc45)cc3)cc2)cc1
inactive: dose: 1.0 mg/kg/injection, schedule: Q01DX009 (ip), vehicle: water 100 % of control | dose: 2.0 mg/kg/injection, schedule: Q01DX009 (ip), vehicle: water 102 % of control | dose: 4.0 mg/kg/injection, schedule: Q01DX009 (ip), vehicle: water 111 % of control | dose: 8.0 mg/kg/injection, schedule: Q01DX009 (ip), vehicle: water 97 % of control
